Test results reported in patent US20100081719A1 (priority 2006, published 2010).
Counter-ions that a name gives are not always drawn.

How the values were obtained:
[1] = tested on: patients who meet the 1990 ACR criteria for fibromyalgia syndrome; experiment: Multicenter, double-blind, randomized, placebo-controlled monotherapy study of milnacipran for treatment of fibromyalgia (Example 2); type: in vivo, human; conditions: 3-month treatment period (LOCF), intent-to-treat; for MFI total score, Change from baseline, Difference from Placebo / MFI total score, Change from baseline, LS Mean (SE): ANCOVA
Description: This was a multicenter, randomized, double-blind, placebo-controlled three-arm study designed which enrolled 1196 patients who meet the 1990 ACR criteria for fibromyalgia syndrome (history of widespread pain and pain in 11 of 18 tender point sites on digital palpation), as well as the more detailed admission criteria outlined in the protocol.
All randomized medications (placebo and milnacipran) were administered twice a day (BID).
(i) Primary Efficacy Assessments: Patient Global Impression of Change (PGIC) administered to patients at visits Tx3, Tx7, Tx11 and Tx15/ET; Physical Component summary of SF-36 (SF-36 PCS) administered to patients at visits BL2/Tx0, Tx3, Tx7, Tx11 and Tx15/ET; (ii) Secondary Efficacy Assessments: Time weighted average (AUC) of weekly average PED morning recall pain score; PGIC and SF-36 PCS administered to patients at visits Tx3 to Tx15.
(iii) Additional Efficacy Measurements: The Fibromyalgia Impact Questionnaire (FIQ) total score and physical function, Beck Depression Inventory (BDI), the MOS-Sleep Index Scale, the Arizona Sexual Experiences Scale (ASEX), Patient pain 24 hour and 7 day recall VAS, the SF-36 individual domains, Patient Global Disease Status, Patient Global Therapeutic Benefit, the Multiple Ability Self-report Questionnaire (MASQ, cognitive function), the Multidimensional Health Assessment Questionnaire (MDHAQ), Multidimensional Fatigue Inventory (MFI), and diary assessments including current pain (morning, random daily, and evening reports); overall pain past week (weekly report), overall fatigue in the last week (weekly report), and the extent that pain kept the patient from caring for themselves (weekly report).

[2] = tested on: fibromyalgia patients; conditions: cited from earlier work
[3] = both milnacipran treatment groups (BID and QD), up to 200 mg/day

CCN(CC)C(=O)C1(c2ccccc2)CC1CN (racemic) [milnacipran, Z-2-aminomethyl-1-phenyl-N, N-diethylcyclopropanecarboxamide hydrochloride]
MFI total score, Actual, Mean ([1]; 100 mg milnacipran): 63.00
MFI total score, Actual, Median ([1]; 100 mg milnacipran): 64.0
MFI total score, Change from baseline, Mean ([1]; 100 mg milnacipran): −5.39
MFI total score, Change from baseline, Median ([1]; 100 mg milnacipran): −4.0
MFI total score, Change from baseline, Difference from Placebo ([1]; 100 mg milnacipran): −1.80
MFI total score, Change from baseline, LS Mean (SE) ([1]; 100 mg milnacipran): −5.47 (0.792)
MFI total score, Actual, Mean ([1]; 200 mg milnacipran): 64.15
MFI total score, Actual, Median ([1]; 200 mg milnacipran): 65.0
MFI total score, Change from baseline, Mean ([1]; 200 mg milnacipran): −5.39
MFI total score, Change from baseline, Median ([1]; 200 mg milnacipran): −4.0
MFI total score, Change from baseline, Difference from Placebo ([1]; 200 mg milnacipran): −1.55
MFI total score, Change from baseline, LS Mean (SE) ([1]; 200 mg milnacipran): −5.63 (0.787)
Therapy for the symptom of pain in FMS ([2]; 100 mg BID): effective acute (short-term) therapy
PGIC: completers who reported an improvement in their overall status [2, 3]: over 70%
PGIC: completers who reported worsening [2, 3]: 10%
Deaths or serious adverse events associated with treatment ([2]; milnacipran-treated patients): no deaths or serious adverse events
Patients in whom elevation in hepatic enzymes resulted in adverse events ([2]; milnacipran-treated patients): 2%
Effect on fatigue, mood, global wellness, and function, BID vs QD dosing ([2]; twice-daily (BID) vs once-daily (QD) dosing): approximately equally effective
Treating pain, BID vs QD dosing ([2]; twice-daily vs QD dosing): more effective in treating pain than QD dosing
